Legend:
Assay type in all cases: cell-based, mouse
TNF-α production = TNF-α production by OVA-stimulated sensitized MC/9 cells, ELISA; conditions: then 10 μg/ml OVA 3 h
Method: An ELISA for TNF-α production was performed as follows. Purified rat anti-mouse TNF-α monoclonal antibody was diluted to 2 μg/ml in coating solution (0.1 M NaHCO3, pH 8.2) and 50 μg was added to wells of an ELISA plate (Dynatech Laboratories). […] After washing twice, standards (16 pg/ml −4 ng/ml recombinant mouse TNF-α) and samples were added at 100 μl per well and incubated overnight at 4° C. After washing four times, biotinylated rabbit anti-mouse TNF-α polyclonal antibody (1 μg/ml) was added to wells and incubated at room temperature for 45 min and wells were washed six times. […] ABTS (2,2′-Azino-bis(3-ethylbenzthiazoline-6-sulfonic acid) substrate (30 mg/ml 0.1 M citric acid, pH 4.35) containing 0.03% H2O2 was added at 100 μl per well and color reaction was allowed to develop at room temperature for 30 min. A plate was read at OD 410 nm and analyzed by Mycroplate Manager (Bio Rad, Hercules, Calif.).
MC/9 cells (1×10^6/ml) were incubated with 500 ng/ml mouse monoclonal IgE specific for OVA (OVA-IgE) for 2 h. […] After the incubation, the cell supernatant was harvested and TNF-α production was measured by ELISA.
The effect of wortmannin on TNF-α production in MC/9 cells was also examined. […] TNF-α in the medium was measured by ELISA.
MC/9 cells sensitized with OVA-IgE (1×10^6/ml) were incubated with 0.1% DMSO or 30 μM PD 098059 for 1 h. […] TNF-α in the medium was measured by ELISA.

ERK2 [1] = experiment: ERK2 in vitro kinase assay (32P incorporation into myelin basic protein) in OVA-stimulated sensitized MC/9 cells
Method: MC/9 cells sensitized with OVA-IgE (1×10^6/ml) were incubated with 0.1% DMSO (control and 0 nM) or 3-30 μM PD 098059 for 1 h and the reaction was stopped by centrifugation at 5 min after the stimulation. The cells were then incubated with 10 μg/ml OVA or PBS (control) for 5 min. Kinase activity of ERK2 was measured as ^32P incorporation into myelin basic protein (MBP).
In vitro kinase assay of ERK2 was carried out as described above with some minor modifications. 3×10^6 cells were lysed by vigorous mixing in 0.4 ml of lysis buffer (20 mM Tris-HCl (pH 8.0), 1% Triton X-100, 10% glycerol, 137 mM NaCl, 1.5 mM MgCl2, 1 mM EGTA, 50 mM NaF, 1 mM Na3VO4, 1 mM PMSF, 5 μg/ml leupeptin, and 10 μg/ml aprotinin). The lysate was incubated with anti-ERK2 antibody (2 μg/ml) for 2 hrs at 4° C. Recombinant protein G sepharose 4B was added to the lysate and incubated for an additional 1 hr at 4° C. The immune complexes were washed three times with lysis buffer, and once with kinase buffer (30 mM Tris-HCl (pH 8.0), 20 mM MgCl2, 2 mM MnCl2). For the in vitro kinase assay, the immune complex suspension was incubated with 9 μg myelin basic protein (MBP) and 10 μCi of [γ-^32P] ATP in kinase buffer in a final volume of 30 μl for 30 min at 30° C. […] The bands corresponding to MBP were cut out of the gel, and radioactivity was determined by liquid scintillation counting.

ERK2 [2] = experiment: ERK2 phosphorylation by anti-ERK2 immunoblot in MC/9 cells; conditions: PD 098059, MC/9 cells
Method: After different treatments, 1×10^6 cells were lysed in buffer (150 mM NaCl, 1% Nonidet P-40, 0.5% deoxycholic acid sodium salt, 0.1% SDS, 50 mM Tris (pH 7.6), 10 μg/ml aprotinin, […] leupeptin, 1 mM phenylmethylsulfonyl fluoride). Samples were electrophoresed on SDS-10% polyacrylamide gels and proteins were transferred to nitrocellulose membranes. Membranes were incubated overnight in blocking buffer containing 1% BSA at 4° C. The monoclonal anti-ERK2 antibody (200 μg/69 μl, Upstate Biotechnology) was added to the blocking buffer (1:1000), and blots were incubated for an additional 1 h at room temperature. The blots were washed in TBST (25 mM Tris (pH 8.0), 125 mM NaCl, 0.025% Tween 20), and specific reactive proteins were detected by an enhanced chemiluminescence method, employing a sheep anti-mouse Ig antibody linked to horseradish peroxidase (Amersham Corp.).
1×10^6 cells were lysed in buffer (150 mM NaCl, 1% NP40, 0.5% deoxycholic acid sodium salt, 0.1% SDS, 50 mM Tris (pH 7.6), 10 μg/ml aprotinin, […] leupeptin, 1 mM PMSF). […] The blots were washed in TBST (25 mM Tris, pH 8.0, […] NaCl, 0.025% Tween 20) and specific reactive proteins were detected by an enhanced chemiluminescence method, employing a sheep anti-mouse Ig antibody linked to horseradish peroxidase (Amersham, Arlington Heights, Ill.).

JNK = JNK activity (GST-c-Jun kinase assay) in OVA-stimulated OVA-IgE-sensitized MC/9 cells
Method: MC/9 cells (5×10^6/ml) were cultured with 500 ng/ml anti-OVA IgE for 2 h. The cells were washed with medium three times and cultured with fresh medium for an additional 2 h. OVA dissolved in PBS or anti-IgE was added for the stimulation, and PBS was used as a control vehicle.
The activity of JNK was measured by monitoring the activity of a Glutathione S-transferase-c-Jun-(1-79) fusion protein. Cells (3×10^6) were lysed in a buffer (20 MM Tris-HCl, pH 7.6, 250 mM NaCl, 3 mM EDTA, 3 mM EGTA, 0.5% NP-40, 2 mM Na3VO4, 1 mM dithiothreitol (DTT), 1 mM phenylmethylsulfonyl fluoride (PMSF), 20 μg/ml aprotinin, 5 μg/ml leupeptin). The lysates were mixed with GST-c-Jun-Sepharose beads and rotated at 4° C. for 3 h. The beads were washed twice in lysis buffer and once in kinase assay buffer (20 mM Hepes, pH 7.5, 20 mM β-glycerophosphate, 10 mM MgCl2, 1 mM DTT, 50 mM Na3VO4, 10 mM p-nitrophenyl phosphate). After the final wash, 40 μl of a kinase assay buffer containing 10 μCi of γ-^32P-ATP (ICN Pharmaceuticals, Irvine, Calif.) were added per sample. […] The bands corresponding to GST-c-Jun were cut out of the gel, and radioactivity was determined by liquid scintillation counting. […]

human TNF-α promoter = experiment: TNF-α promoter luciferase reporter pTNF(-1311)Luc in MC/9 cells stimulated by FcεRI aggregation
Method: The pXP1 plasmid containing full length of the human TNF-α promoter just upstream of the luciferase gene, designated pTNF(-1311)Luc, was provided by Dr. James S. Economou (Division of Surgical Oncology, UCLA School of Medicine, Los Angels, Calif.). pTNF(-1311)Luc was transfected into MC/9 by the DEAE-dextran method. 2×10^6 cells were washed once with 1×TBS (25 mM Tris, 137 mM NaCl, 5 mM KCl, 0.5 mM Na2HPO4, 0.49 MM MgCl2, 0.68 mM CaCl21 pH 7.5). Cells were suspended with 0.4 ml of 500 μg DEAE-dextran/4 μgDNA mixture and incubated at room temperature for 30 min. After washed with 1×TBS, cells were suspended with 10 ml of culture medium and plated on culture dish. […]
Luciferase activity was measured to measure TNF-α promoter activity. […] 30 μl of the lysate was mixed with the same volume of Luciferase Assay Substrate containing beetle luciferin as a substrate (Promega, Madison Wis.), and chemiluminescence was measured for 30 sec as relative light units by a luminometer (Monolight 2010, Analytical Luminescence Laboratory, San Diego, Calif.).
MC/9 cells transiently transfected by pTNF(-1311)Luc were passively sensitized with OVA-IgE, and incubated for an additional 15 h with 10 μg/ml OVA or PBS in the presence of 0.01% DMSO or 100 nM wortmannin. […] Luciferase activity in cell lysates was measured as relative light units (RLU) and standardized by control RLU (mean±S.D., N=4, p<0.01). […]

p38 MAP kinase = p38 MAP kinase immunoprecipitation kinase assay (ATF-2 substrate) in OVA-stimulated sensitized MC/9 cells
Method: MC/9 cells sensitized with OVA-IgE were incubated in the presence of PBS (O min) or 10 μg/ml OVA for 1, 5, 15, 30, or 60 min. To immunoprecipitate p38 kinase, 3×10^6 cells were lysed by vigorous mixing in 0.4 ml of extraction buffer (1% Triton X-100, 10 mM Tris-HCl (pH 7.4), 5 mM EDTA, 50 mM NaCl, 50 mM […], 0.1% bovine serum albumin (BSA), 20 μg/ml aprotinin, 1 mM PMSF, and 2 mM Na3VO4). The lysate was incubated with the rabbit anti-serum raised against the COOH-terminal peptide sequence of p38 (1:400 dilution) for 2 h at 4° C. Recombinant protein G sepharose 4 B was added to the lysate and incubated for an additional 1 h at 4° C. The immunoprecipitates were washed once with extraction buffer, twice with PAN buffer (10 mM piperazine-N, N′-bis (2-ethanesulfonic acid) (PIPES, pH 7.0), 100 mM NaCl, 20 μg/ml aprotinin). […] The kinase activity was quantified with a PhosphorImager (Molecular Dynamics, Sunnyvale, Calif.).
MC/9 cells sensitized with OVA-IgE (3×10^6) were preincubated with either 1-1000 nM wortmannin or a control (0.01% DMSO) for 15 min and stimulated for 5 min by addition of 10 μg/ml OVA. […] The data are expressed as the percentage of p38 activity detected in the presence of 10 μg/ml OVA and 0.01% DMSO (*, p<0.05).

| Compound | effect on TNF-α production (TNF-α production; 30 μM PD 098059, 1 h) | decrease in OVA-induced ERK2 activity (ERK2 [1]; 30 μM PD 098059, 1 h, then 10 μg/ml OVA 5 min) | effect on ERK2 activities (ERK2 [1]; 10-30 μM PD 098059, MC/9 cells) | effect on ERK2 phosphorylation induced by aggregation of FcεRI (ERK2 [2]) | effect on JNK activation (JNK; PD 098059, data not shown) | effect on OVA-induced luciferase activity (TNF-α promoter) (human TNF-α promoter; 30 μM PD 098059, 10 μg/ml OVA 15 h) | effect on p38 activation (p38 MAP kinase; PD 098059, data not shown) | decrease in TNF-α production (TNF-α production; 100 nM wortmannin, 15 min) | JNK kinase activity, percentage of that observed in the absence of treatment (JNK; 100 nM wortmannin, 15 min preincubation, 10 μg/ml OVA 10 min, MC/9 cells) | decrease in OVA-induced luciferase activity (TNF-α promoter) (human TNF-α promoter; 100 nM wortmannin, 10 μg/ml OVA 15 h) | decrease in p38 kinase activities (p38 MAP kinase; 100 nM-1 μM wortmannin, 15 min, then 10 μg/ml OVA 5 min) |
| --- | --- | --- | --- | --- | --- | --- | --- | --- | --- | --- | --- |
| COc1cccc(-c2cc(=O)c3ccccc3o2)c1N [PD 098059] | did not affect TNF-α production | 65% | significantly inhibited | strongly inhibited | did not inhibit | enhanced OVA-induced luciferase activity | did not inhibit | – | – | – | – |
| COC[C@H]1OC(=O)c2coc3c2[C@@]1(C)C1=C(C3=O)[C@@H]2CCC(=O)[C@@]2(C)C[C@H]1OC(C)=O [wortmannin] | – | – | – | – | – | – | – | 77% | 8% | 40% | 50-60% |

From US6495331B1, “Regulation of cytokine production in a hematopoietic cell” (National Jewish Center for Immunology and Respiratory …, priority 1996, dated 2002)
